From patent US20250186540A1, “VIPR2 ANTAGONIST PEPTIDE FOR SUPPRESSING CANCER METASTASIS” (ICHIMARU PHARCOS CO., LTD., priority 2022, published 2025)
Positions of bridges follow the written chain, without caps; N, C: chain ends.

Experiments:
[1] = test system: phosphorylation of AKT in MCF-7 cells; assay: Phosphorylation of AKT on VIP stimulation (Western blotting); format: cell-based; conditions: MCF-7 cells starved 3 hours, 0 nM to 1000 nM VIP for 10 minutes
Method: (§1) Western blotting was performed according to a previously described method (Asano et al. 2014, Biol. Open3, 463-474; Asano et al. 2019, Sci. Rep. 9, 12729).
To investigate whether VIP is involved in cell movement via the PI3K/PI(3,4,5)P3 pathway, phosphorylation of AKT, a downstream signal of the PI3K/PI(3,4,5)P3 pathway in cancer cells, was assessed by Western blotting. […] All experiments were independently performed at least three times, and similar data were obtained.

[2] = test system: MDA-MB-231 cells stably expressing EGFP or VIPR2-EGFP; assay: WAVE2-rich lamellipodia area after VIP stimulation; format: cell-based; conditions: 100 nM VIP; 30 minutes
Method: MDA-MB-231 cells (2×10^5 cells) stably expressing EGFP or VIPR2-EGFP were seeded on collagen-coated cover glass and incubated under conditions of 37° C. and 5% CO2. After 24 hours, the cells were washed with serum-free medium, and fresh serum-free medium was added to incubate the cells (under conditions of 37° C. and 5% CO2). After 3 hours, the medium was replaced with serum-free medium containing 100 nM VIP, and incubation for 30 minutes was performed. The cells were fixed with 4% paraformaldehyde, and immunostained using an anti-WAVE2 antibody. The surface area of a WAVE2-rich region immediately below the cell membrane was measured from a fluorescently-stained image of the same and graphed.
Data are shown as mean±SD. **: p<0.01, ***: p<0.001, between indicated groups (Kruskal-Wallis test and Dunn's multiple comparison test). “n.s.” indicates not statistically significant. […] The MDA-MB-231 cells stably expressing VIPR2-EGFP had more pronounced area expansion of lamellipodia compared to the control MDA-MB-231 cells expressing EGFP.

[3] = test system: MDA-MB-231 cells stably expressing EGFP or VIPR2-EGFP; assay: Transwell chamber assay of VIP-induced movement; format: cell-based; conditions: 200 nM VIP; 30 hours
Method: (§2) In addition, the measurement was performed according to the method described above (Asano et al. 2012, Mol. Cell Biol. 32, 3242-3252) using a Boyden chamber. To each well, 600 μL of a serum-free culture solution containing 200 nM VIP was added. Cells (1×10^4 cells) were suspended in 100 μL of a serum-free culture solution and added to the insert. The cells were allowed to migrate for 30 or 48 hours at 37° C. Non-mobile cells adhering to the upper surface of the membrane were removed, and mobile cells adhering to the lower surface were fixed with 4% paraformaldehyde and counted with a fluorescence microscope.
Cells were suspended in serum-free media (1×10^4 cells/[…]). A serum-free medium 6 containing 200 nM VIP was added to each well in an amount of 600 μL, and an insert 3 having 3 μm pores 5 was immersed in the well. […] After 30 hours, cells were fixed, cells on the surface of the insert 3 were removed, and then fluorescence of EGFP of cells 2 that had moved to the rear surface in response to VIP was detected with a fluorescence microscope. The number of the cells that had moved to the rear surface of the insert was graphed based on the fluorescence image. […] VIP (200 nM) was added to the well, the cells were added to the insert and incubated at 37° C. for 30 hours, and cells that had moved to the rear side of the insert were quantified and shown graphically.

[4] = test system: phosphorylation of AKT in MDA-MB-231 cells stably expressing VIPR2-EGFP; assay: Phosphorylation of AKT by VIP in the presence and absence of KS-133 (Western blotting); format: cell-based
Method: as §1
Pathway by VIP in MDA-MB-231 Cells Stably Expressing VIPR2-EGFP>Phosphorylation of AKT by VIP in MDA-MB-231 cells stably expressing VIPR2-EGFP was evaluated in the presence and absence of KS-133.

[5] = test system: MDA-MB-231 breast cancer cells stably expressing VIPR2-EGFP; assay: Transwell migration test with KS-133; format: cell-based
Method: as §2
Using the transwell shown in FIG. 7, the effect of KS-133 on migration of MDA-MB-231 breast cancer cells stably expressing VIPR2-EGFP was examined. MDA-MB-231 cells stably expressing VIPR2-EGFP were suspended in serum-free medium containing KS-133 at each of the concentrations of 0 nM to 1000 nM (1×10^4 cells/100 μL). A serum-free medium 6 containing 200 nM VIP and KS-133 at each of the concentrations was added to each well in an amount of 600 μL, and an insert 3 having 3 μm pores 5 was immersed in the well. Then, the suspended cells 1 were added to the insert 3, and incubated under conditions of 37° C. and 5% CO2. After 48 hours, the cells were fixed, cells on the surface of the insert 3 were removed, and then fluorescence of EGFP of cells 2 that had moved to the rear surface in response to induction by VIP was detected with a fluorescence microscope. The number of the cells that had moved to the rear surface of the insert was graphed based on the fluorescence image.
FIG. 8A is a fluorescence micrograph showing migrated cells. FIG. 8B and Table 2 show the number of migrated cells when each concentration of KS-133 was added.

[6] = test system: psychiatric disease model mice; conditions: NON-PATENT DOCUMENT 2; cited from earlier work
[7] = test system: MCF-7 cells overexpressing VIPR2-EGFP; assay: Cell proliferation test with KS-133; format: cell-based; conditions: for Number of cells (mean value): 100 nM KS-133, 100 nM VIP, 2% FBS
Method: This effect was confirmed. The cell proliferation test was performed according to NON-PATENT DOCUMENT 3. MCF-7 cells overexpressing VIPR2-EGFP were seeded in a 35 mm culture dish at a density of 1×10^5 cells/dish for 6 hours, and the culture medium was replaced with a fresh medium containing 2% FBS, 100 nM VIP, and 0 nM or 100 nM KS-133 (day 0). Cells were observed under a BZ-X800 fluorescence microscope (Keyence, Kyoto, Japan) and the number of cells was counted every 24 hours for up to 4 days by trypan blue dye staining using a hemacytometer (timecourse experiment).

Vasoactive intestinal peptide [VIP]
phosphorylation of AKT [1]: phosphorylated in a VIP addition concentration-dependent manner
WAVE2-rich area of lamellipodia [2]: expanded the WAVE2-rich area of lamellipodia
number of cells that had moved to the back side of the insert [3]: increased

Ac-c[Cys^1-Pro^2-Pro^3-Tyr^4-Leu^5-Pro^6-c(Lys^7-Tyr^8-Leu^9-Cys^10]-Asp^11)-Leu^12-Ile^13-NH2 (Ac-CPPYLPKYLCDLI-NH2; disulfide 1-10; lactam 7-11; SMILES CC[C@H](C)[C@H](NC(=O)[C@H](CC(C)C)NC(=O)[C@@H]1CC(=O)NCCCC[C@@H]2NC(=O)[C@@H]3CCCN3C(=O)[C@H](CC(C)C)NC(=O)[C@H](Cc3ccc(O)cc3)NC(=O)[C@@H]3CCCN3C(=O)[C@@H]3CCCN3C(=O)[C@@H](NC(C)=O)CSSC[C@H](NC(=O)[C@H](CC(C)C)NC(=O)[C@H](Cc3ccc(O)cc3)NC2=O)C(=O)N1)C(N)=O) [KS-133]
expression of AKT [4]: did not affect the expression of AKT
phosphorylation of AKT induced by VIP ([4]; presence vs absence of KS-133): strongly suppressed phosphorylation of AKT induced by VIP in an addition concentration-dependent manner
VIP-induced cell migration ([5]; 200 nM VIP, KS-133 0 nM to 1000 nM, 48 hours): suppressed
Mean cell count (migrated cells) ([5]; KS-133 30 nM, 200 nM VIP, 48 hours): 4.35 Cells/mm^2
Mean cell count (migrated cells) ([5]; KS-133 100 nM, 200 nM VIP, 48 hours): 2.08 Cells/mm^2
Mean cell count (migrated cells) ([5]; KS-133 300 nM, 200 nM VIP, 48 hours): 1.39 Cells/mm^2
Mean cell count (migrated cells) ([5]; KS-133 1000 nM, 200 nM VIP, 48 hours): 0.78 Cells/mm^2
KS-133 concentration showing a significant difference in migration compared to the absence of KS-133 ([5]; Kruskal-Wallis test and Dunn's multiple comparison test): ≥ 100 nM
cognitive decline [6]: suppress cognitive decline
Number of cells (mean value) ([7]; Day 0): 1.0 × 10^5
Number of cells (mean value) ([7]; Day 1): 0.85 × 10^5
Number of cells (mean value) ([7]; Day 2): 0.65 × 10^5
Number of cells (mean value) ([7]; Day 3): 0.45 × 10^5
Number of cells (mean value) ([7]; Day 4): 0.2 × 10^5
cell proliferation ([7]; MCF-7 cells overexpressing VIPR2, addition of KS-133): significantly suppressed from Day 2 of culture or later
